Like-named read-outs stand apart in the source and are kept apart here.
Experiments:
MNT‐1 cells [1] = test: Wash‐out assay, melanin content in MNT‐1 cells after drug withdrawal; type: cell-based, human; conditions: for inhibition at 1 µM / inhibition at 10 µM: Homo sapiens, read-out: melanin inhibition rate after washout; for inhibition at 1 µM: MNT-1, 1 μM for 6 days; for inhibition at 10 µM: MNT-1, 10 μM for 6 days
Procedure: MNT‐1 cells were treated with 1 or 10 μM KT‐939 for six days, after which the drug‐containing medium was replaced with standard culture medium. Melanin content was measured at various time points.
FIGURE 4 The inhibitory effect of KT‐939 on melanin production is reversible. MNT‐1 cells were exposed to 1 or 10 μM of KT‐939 for 6 days, followed by drug washout and replacement with normal medium. Melanin content was measured at specified time points. Data represent the mean ± standard deviation of three independent experiments.

[2] = tested on: NRF2/ARE signaling pathway; test: NRF2/ARE‐luciferase reporter assay in HEK293T cells; type: cell-based, human; conditions: 10 µM, 48 h, relative to DMSO
Procedure: The NRF2‐responsive firefly luciferase reporter plasmid (pGL4.27_ARE NRF2‐SPE) and Renilla luciferase control plasmid (pRL‐TK) were co‐transfected into HEK293T cells using Lipofectamine 2000. After 24 h, transfected cells were seeded into 96‐well plates and incubated overnight. Test compounds (10 μM) were added, and cells were incubated for an additional 48 h. Luciferase activities were measured using the Dual‐Lumi Luciferase Reporter Assay Kit (Beyotime Biotechnology), following the manufacturer's instructions.
FIGURE 6 KT‐939 activates the ARE/NRF2 signaling pathway. HEK293T cells transfected with an NRF2‐responsive firefly luciferase reporter were treated with 10 µM of KT‐939, hydroquinone (Hq), 377, or 4‐butylresorcinol for 48 h. Luminescence signals were normalized to renilla and expressed relative to DMSO control. *** p < 0.001 vs DMSO.

[3] = tested on: LPS‐stimulated RAW264.7 cells; test: RT‐qPCR of inflammatory cytokines in LPS‐stimulated RAW264.7 cells; type: cell-based, mouse; conditions: 3, 10 or 30 μM pretreatment 2 h, then 100 ng/mL LPS 16 h, vs LPS group
Procedure: RAW264.7 cells were treated with KT‐939 at concentrations of 3, 10, or 30 μM and incubated for 2 h. After pretreatment, cells were stimulated with 100 ng/mL LPS for an additional 16 h. Total RNA was extracted using the MiniBEST RNA Extraction Kit (Takara Bio) per the manufacturer's protocol. Reverse transcription and SYBR Green‐based qPCR were performed with ABScript II One Step RT‐qPCR Kit (Abclonal). RT‐PCR primer sequences were as follows: (Mouse) TNF‐α sense: 5‐[…]‐3, antisense: 5‐[…]‐3; (Mouse) IL‐6 sense: 5‐[…]‐3, antisense: 5‐[…]‐3; (Mouse) IL‐1α sense: 5‐[…]‐3, antisense: 5‐[…]‐3; (Mouse) GAPDH sense: 5‐[…]‐3, antisense: 5‐[…]‐3; Expression of target gene mRNA was normalized to GAPDH, and results were analyzed using GraphPad software.
RAW264.7 cells were pre‐treated with different concentrations of KT‐939, followed by the addition of 100 ng/mL LPS for 16 h. mRNA levels of TNF‐α, IL‐6, and IL‐1α were quantified by RT‐PCR and compared to the LPS‐induced group (*p < 0.05, **p < 0.01, ***p < 0.001).

B16‐F10 cells = test: Cell viability, B16‐F10; type: cell-based, murine; conditions: B16‐F10, 72 h, up to 50 μM
Procedure: (§1) B16‐F10, MNT‐1, and HaCaT cells (5000 cells/well) were seeded into 96‐well plates and incubated overnight. Culture medium (50 μL) containing varying concentrations of KT‐939 was added to each well, and cells were incubated for 72 h. Cell viability was assessed using the Cell Viability Assay Kit (Vazyme Biotech), following the manufacturer's instructions. Luminescence was measured using a Synergy H1 Hybrid Reader. DMSO‐treated cells served as the control, and survival rates were calculated and analyzed with GraphPad software.
(§2) B16‐F10, MNT‐1, and HaCaT cells were incubated with different concentrations of KT‐939 for 72 h. Cell viability was assessed and normalized to the DMSO‐treated control group.

MNT‐1 cells [4] = test: Cell viability, MNT‐1; type: cell-based, human; conditions: MNT‐1, 72 h, up to 50 μM
Procedure: as §1, §2

HaCaT cells = test: Cell viability, HaCaT; type: cell-based, human; conditions: 72 h, up to 50 μM
Procedure: as §1, §2

CC1(C(=O)Nc2nc(-c3ccc(O)cc3O)cs2)COC1 [KT‐939, N‐(4‐(2,4‐Dihydroxyphenyl) Thiazol‐2‐yl)‐3‐Methyloxetane‐3‐Carboxamide]
melanin inhibition after washout (MNT‐1 cells [1]; 1 μM for 6 days, after seven days): returning to baseline | melanin content after washout (MNT‐1 cells [1]; 10 μM for 6 days, after 11 days of drug withdrawal): fully returned to normal levels | inhibition at 1 µM (MNT‐1 cells [1]; day 3 after washout): 38% | inhibition at 1 µM (MNT‐1 cells [1]; day 5 after washout): 28.3% | inhibition at 10 µM (MNT‐1 cells [1]; day 3 after washout): 66.6% | inhibition at 10 µM (MNT‐1 cells [1]; day 5 after washout): 52.7% | inhibition at 10 µM (MNT‐1 cells [1]; day 7 after washout): 21.3% | inhibition at 10 µM (MNT‐1 cells [1]; day 9 after washout): 20% | NRF2 signaling pathway activation (luciferase reporter) [2]: significantly enhanced the NRF2 signaling pathway | IL‐1α mRNA level [3]: dose‐dependent decrease | IL‐6 mRNA level [3]: dose‐dependent decrease | TNF‐α mRNA level [3]: dose‐dependent decrease | cytotoxicity (cell viability) (B16‐F10 cells): no significant cytotoxicity | cytotoxicity (cell viability) (MNT‐1 cells [4]): no significant cytotoxicity | cytotoxicity (cell viability) (HaCaT cells): no significant cytotoxicity
